Assay results from article doi:10.1101/362293v1 (biorxiv, 2018).
Residue numbers refer to the chain shown, from its start.

Key:
[1] = target: T1, S. typhimurium CobB; CobB^S. typhimurium (Salmonella enterica, UniProt P0A2F2); test: affinity measurement, method not given; assay type: binding
T1 sequence (P0A2F2 1-273): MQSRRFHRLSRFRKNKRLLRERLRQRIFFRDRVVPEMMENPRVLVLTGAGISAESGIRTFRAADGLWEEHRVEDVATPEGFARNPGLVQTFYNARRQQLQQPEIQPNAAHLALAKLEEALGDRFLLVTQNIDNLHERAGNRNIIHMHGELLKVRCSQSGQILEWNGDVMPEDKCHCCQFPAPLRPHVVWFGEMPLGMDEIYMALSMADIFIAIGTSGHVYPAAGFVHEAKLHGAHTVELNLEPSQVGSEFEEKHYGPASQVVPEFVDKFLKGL

[2] = target: T2, CobB (Escherichia coli, UniProt P75960, R8A); test: isothermal titration calorimetry; assay type: binding
T2 sequence (P75960 1-279 R8A): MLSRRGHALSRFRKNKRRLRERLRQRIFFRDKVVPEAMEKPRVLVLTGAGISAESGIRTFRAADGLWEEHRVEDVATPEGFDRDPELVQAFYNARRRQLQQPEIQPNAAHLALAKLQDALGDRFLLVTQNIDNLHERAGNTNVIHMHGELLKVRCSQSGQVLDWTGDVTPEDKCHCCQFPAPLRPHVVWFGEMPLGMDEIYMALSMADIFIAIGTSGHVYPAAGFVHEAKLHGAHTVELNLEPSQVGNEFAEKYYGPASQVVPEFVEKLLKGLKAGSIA

[3] = target: T3, CobB (Escherichia coli, UniProt P75960); test: deacetylation of an acetylated peptide, HPLC; assay type: biochemical
T3 sequence (P75960 1-279): T2 sequence (P75960 1-279 R8A) with A8R

[4] = target: T4, CobB (Escherichia coli, UniProt P75960, R17A); test: isothermal titration calorimetry; assay type: binding
T4 sequence (P75960 1-279 R17A): T2 sequence (P75960 1-279 R8A) with A8R, R17A

[5] = target: T5, CobB (Escherichia coli, UniProt P75960, E21A); test: isothermal titration calorimetry; assay type: binding
T5 sequence (P75960 1-279 E21A): T2 sequence (P75960 1-279 R8A) with A8R, E21A

[6] = target: T3, CobB; test: isothermal titration calorimetry; assay type: binding

Kd [1]: 15.5 µM
Kd [2]: 1800 µM
Ki [3]: 32.3 µM
Kd [4]: 1600 µM
Kd [5]: 320 µM
Kd [6]: 21.6 µM
SMILES: Nc1nc2c(ncn2[C@@H]2O[C@@H]3CO[P@](=O)(O)O[C@H]4[C@@H](O)[C@H](n5cnc6c(=O)[nH]c(N)nc65)O[C@@H]4CO[P@](=O)(O)O[C@H]3[C@H]2O)c(=O)[nH]1 [c-di-GMP]
